Results published in patent US9284303B2, “Benzimidazole cannabinoid agonists bearing a substituted heterocyclic group” (priority 2006, dated 2016).
Structures can show the parent of a compound that is named as a salt. Where two headings read alike, the source gives them in different places.

Assays:
[1] = molecular target: T1, human CB2 (hCB2) receptor (Homo sapiens, UniProt P34972); assay: Inhibition of forskolin-activated cAMP production upon activation of hCB2 (HTRF), CHO-K1 cells; format: cell-based; settings: for ratio CB2 agonism over CB1 agonism: Table C-1, selectivity hCB2 over hCB1; for EC50: forskolin-activated cAMP, pEC50=-log(EC50); for ratio CB2 over CB1 agonism: Table C-3, comparison of art compounds A to E with compounds of the invention
T1 construct: expressed in transfected cells; host or cells: CHO-K1
Protocol: (§1) Functional activity of the test compounds was assessed by measuring their potency to inhibit forskolin-activated cAMP production upon activation of the human CB1 (hCB1) or human CB2 (hCB2) receptor through homogenous time resolved fluorescence (HTRF) assays.
(§2) Before the experiments, medium was removed, cells were washed with PBS/EDTA (140 mM NaCl, 1 mM Naz-EDTA, 8 mM Na2HPO4.2H2O, 8.5 mM KH2PO4, 2.7 mM KCl, 21 mM glucose), resuspended in stimulation buffer (HBSS 1x, IBMX 1 mM, Hepes 5 mM, MgCl2 10 mM, BSA 0.1%, pH 7.4). Cells were diluted to a concentration of 8.10^5 cell/ml for hCB1 experiments and 10^6 cells/ml for hCB2 experiments. Assays were performed using the cAMP Dynamic HTRF kit (CIS bio international, France) according to the recommendations of the manufacturer.
Then, 20 μl of the diluted hCB2-CHO-K1 cells was added (20,000 cells/well). After 30 minutes incubation in dark at room temperature, 10 μl cAMP-XL665 and 10 μl anti-cAMP cryptate (both at a final dilution of 1/100) was added to the cells.

[2] = molecular target: T2, human CB1 (hCB1) receptor (Homo sapiens, UniProt P21554); assay: Inhibition of forskolin-activated cAMP production upon activation of hCB1 (HTRF), CHO-K1 cells; format: cell-based; settings: CB1 pEC50, hCB1-CHO-K1 cells, forskolin-activated cAMP, pEC50=-log(EC50)
T2 construct: expressed in transfected cells; host or cells: CHO-K1
Protocol: as §1
as §2, with “CHO-K1 cells stably transfected with either hCB1 or hCB2 were grown up to 80-90% confluence in T175 Falcon flasks in DMEM/NUT MIX F-12 culture medium complemented with 2% Solution A (5.10^6 IU/l penicillin G, 5 g/l streptomycin sulphate, 5.5 g/l pyruvate, 14.6 g/l L-glutamine, 1M NaOH) and 10% foetal calf serum. Before” for “Before”
For CB1, each well of a 96 flat bottom black polystyrene assay plate (Costar) was filled with 25 μl stimulation buffer containing 6 μM forskolin and either test compound (in 2% DMSO), 2% DMSO or 2 μM CP55490 (in 2% DMSO). Then, 25 μl of the diluted cells was added (20,000 cells/well). After 30 minutes incubation in dark at room temperature, 25 μl cAMP-XL665 and 25 μl anti-cAMP cryptate (both at a final dilution of 1/80) was added to the cells.
After equilibration of the reaction mixtures for 1 to 24 hours in dark at room temperature, fluorescence was measured at 665 nm and 620 nm using a Discovery microplate fluorescence counter (Perkin Elmer), and the signal ratio of 665 nm/620 nm was calculated. The signal ratios of the test compounds were expressed relative to the signal ratios of the DMSO control (maximal signal ratio, no inhibition of cAMP) and CP55490 or WIN55212-2 for hCB1 and hCB2, respectively (minimal signal ratio, maximal inhibition of cAMP). From the dose response curves generated for each test compound, the dose at which 50% of the maximal inhibition of cAMP level is observed (EC50, expressed in the Tables as pEC50=−log(EC50) values) and the level of inhibition reached with 10 μM of the test compound compared to CP55490 (for hCB1) or WIN55212-2 (for hCB2) was calculated.

[3] = hCB2-CHO-K1 cells, read-out: CB2 pEC50 (converted)

T2 sequence (P21554 whole entry): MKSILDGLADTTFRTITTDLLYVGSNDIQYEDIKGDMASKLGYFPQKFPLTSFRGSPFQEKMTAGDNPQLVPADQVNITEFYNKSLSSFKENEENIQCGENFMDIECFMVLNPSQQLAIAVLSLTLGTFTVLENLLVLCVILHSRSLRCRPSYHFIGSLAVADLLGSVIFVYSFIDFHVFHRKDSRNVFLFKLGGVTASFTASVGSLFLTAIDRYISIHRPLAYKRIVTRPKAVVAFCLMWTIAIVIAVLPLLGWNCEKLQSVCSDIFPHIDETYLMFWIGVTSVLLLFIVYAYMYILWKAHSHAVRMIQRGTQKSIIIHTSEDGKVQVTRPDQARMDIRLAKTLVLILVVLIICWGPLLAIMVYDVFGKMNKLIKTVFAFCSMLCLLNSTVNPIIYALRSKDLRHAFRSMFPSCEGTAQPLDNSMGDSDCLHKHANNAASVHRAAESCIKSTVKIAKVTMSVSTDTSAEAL
T1 sequence (P34972 whole entry): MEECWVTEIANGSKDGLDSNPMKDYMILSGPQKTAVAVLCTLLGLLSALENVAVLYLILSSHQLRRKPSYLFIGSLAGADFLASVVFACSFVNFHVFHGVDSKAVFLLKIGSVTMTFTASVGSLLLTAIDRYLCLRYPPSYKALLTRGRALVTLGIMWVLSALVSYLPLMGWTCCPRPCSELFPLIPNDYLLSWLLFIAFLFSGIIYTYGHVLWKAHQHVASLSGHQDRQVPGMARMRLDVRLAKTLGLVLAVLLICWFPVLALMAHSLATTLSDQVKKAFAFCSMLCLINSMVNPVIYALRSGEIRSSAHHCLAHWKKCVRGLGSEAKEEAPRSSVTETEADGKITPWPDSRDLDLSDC

| SMILES | melting point | ratio CB2 agonism over CB1 agonism [1] | EC50 [1, 3] | EC50 [2] | further results |
| --- | --- | --- | --- | --- | --- |
| CCOc1cc(S(=O)(=O)c2ccc3c(c2)nc(C(C)(C)C)n3CCCC(F)(F)F)ccn1 | 137.7 °C | – | – | – | – |
| CC(C)(C)c1nc2cc(S(=O)(=O)c3ccc(S(N)(=O)=O)s3)ccc2n1CC1CCOCC1 (as salt: HCl) [Co. No. 47] | 255 to 260 °C | – | – | – | – |
| CC(C)(C)c1nc2cc(S(=O)(=O)c3ccc(C(=O)N4CCCC4)o3)ccc2n1CC1CCOCC1 (as salt: HCl) [Co. No. 74] | 108.5 °C | – | – | – | – |
| CC(C)(C)c1nc2cc(S(=O)(=O)c3ccnc(O)c3)ccc2n1CCCC(F)(F)F | 277.5 °C | – | – | – | – |
| CC(C)(C)c1nc2cc(S(=O)(=O)c3ncc(C#N)s3)ccc2n1CCCC(F)(F)F | 122 °C | – | – | – | – |
| CC(C)(C)c1nc2cc(S(=O)(=O)c3ccc(C#N)s3)ccc2n1CC1CCOCC1 | 156 °C | – | – | – | – |
| CC(C)(C)c1nc2cc(S(=O)(=O)c3ccnc(C(F)(F)F)c3)ccc2n1CC1CCOCC1 [Co. No. 119] | – | >1413 | 7.08 nM | > 10000 nM | – |
| CC(C)(C)c1nc2cc(S(=O)(=O)c3ccc(OCC(F)(F)F)nc3)ccc2n1CC1CCOCC1 [Co. No. 108] | – | >3890 | 2.57 nM | > 10000 nM | – |
| COc1ncc(S(C)(=O)=O)cc1S(=O)(=O)c1ccc2c(c1)nc(C(C)(C)C)n2CC1CCOCC1 [Co. No. 78] | – | >1380 | 7.24 nM | > 10000 nM | – |
| CC(C)(C)c1nc2cc(S(=O)(=O)c3ccnc(C#N)c3)ccc2n1CC1CCOCC1 (as salt: methanesulfonate) [Co. No. 93] | 215.7 °C | – | – | – | – |
| CC(C)(C)c1nc2cc(S(=O)(=O)c3ccnc(OCCCN4CCOCC4)c3)ccc2n1CC1CCOCC1 [Co. No. 135] | – | >4571 | 2.19 nM | > 10000 nM | – |
| CC(C)(C)OC(=O)NCCCOc1cc(S(=O)(=O)c2ccc3c(c2)nc(C(C)(C)C)n3CC2CCOCC2)ccn1 [Co. No. 130] | – | >4315 | 2.29 nM | > 10000 nM | – |
| COCCCn1cc(S(=O)(=O)c2ccc3c(c2)nc(C(C)(C)C)n3CC2CCOCC2)cn1 [Co. No. 161] | – | 2951 | 1.82 nM | 5250 nM | – |
| CC(C)(C)c1nc2cc(S(=O)(=O)c3ccc(S(C)(=O)=O)s3)ccc2n1CC1CCOCC1 (as salt: HCl) [Co. No. 58] | 224 °C | – | – | – | – |
| CC(C)(C)c1nc2cc(S(=O)(=O)c3ncc(C(F)(F)F)cc3Cl)ccc2n1CC1CCOCC1 [Co. No. 61] | – | 135 | 1.12 nM | 151 nM | – |
| COc1ccc(S(=O)(=O)c2ccc3c(c2)nc(C(C)(C)C)n3CC2CCOCC2)cn1 [Co. No. 54] | – | – | 0.933 nM | 123 nM | ratio CB2 agonism over CB1 agonism ([1]; listed as 54): 133 |
| CC(C)(C)c1nc2cc(S(=O)(=O)c3sc(S(C)(=O)=O)cc3Br)ccc2n1CC1CCOCC1 [Co. No. 63] | – | – | 0.977 nM | 2820 nM | ratio CB2 agonism over CB1 agonism ([1]; listed as 63): 2818 |
| CC(C)(C)c1nc2cc(S(=O)(=O)c3cc(S(C)(=O)=O)cnc3O)ccc2n1CC1CCOCC1 [Co. No. 77] | – | 1303 | 1.95 nM | 2570 nM | – |
| CC(O)c1ccc(S(=O)(=O)c2ccc3c(c2)nc(C(C)(C)C)n3CC2CCOCC2)s1 (stereo not shown) | 192 °C | – | – | – | – |
| CC(C)(C)c1nc2cc(S(=O)(=O)c3sc(S(C)(=O)=O)cc3Br)ccc2n1CC1CCOCC1 [Co. No. 64] | – | – | – | 1860 nM | EC50 ([1]; CB2 pEC50, hCB2-CHO-K1 cells): 0.479 nM; ratio CB2 agonism over CB1 agonism ([1]; listed as 64): 3920 |

| SMILES | melting point | ratio CB2 agonism over CB1 agonism [1] | EC50 [1, 3] | EC50 [2] | further results |
| --- | --- | --- | --- | --- | --- |
| CC(=O)NCCCOc1cc(S(=O)(=O)c2ccc3c(c2)nc(C(C)(C)C)n3CC2CCOCC2)ccn1 [Co. No. 132] | – | >7079 | 1.41 nM | > 10000 nM | – |
| CC(C)(C)c1nc2cc(S(=O)(=O)c3ccnc(F)c3)ccc2n1CC1CCC1 [Co. No. 136] | – | >22734 | 0.437 nM | > 10000 nM | – |
| CC(C)(C)c1nc2cc(S(=O)(=O)c3ccnc(F)c3)ccc2n1CCC1OCCO1 [Co. No. 165] | – | >923 | 10.7 nM | > 10000 nM | – |
| CCC(C)(C)c1nc2cc(S(=O)(=O)c3ccc(OC)nn3)ccc2n1CC1CCC1 [Co. No. 26] | – | 676 | 0.794 nM | 537 nM | – |
| CC(C)(C)c1nc2cc(S(=O)(=O)c3ccnc(F)c3)ccc2n1CCCC(F)(F)F | 138.9 °C | – | – | – | – |
| CC(C)(C)c1nc2cc(S(=O)(=O)c3ccnc(F)c3)ccc2n1CC1CCOCC1 [Co. No. 25] | – | 495 | 0.813 nM | 407 nM | ratio CB2 over CB1 agonism [1]: 495 |
| CC(C)(C)c1nc2cc(S(=O)(=O)c3ccc(CN)nc3)ccc2n1CC1CCOCC1 [Co. No. 116] | – | 966 | 5.89 nM | 5750 nM | – |
| CCOc1cc(S(=O)(=O)c2ccc3c(c2)nc(C(C)(C)C)n3CC2CCOCC2)ccn1 [Co. No. 9] | – | 4266 | 0.331 nM | 1410 nM | ratio CB2 over CB1 agonism [1]: 4266 |
| CC(C)(C)c1nc2cc(S(=O)(=O)c3ccnc(F)c3)ccc2n1CC1CCOC(=O)CC1 (stereo not shown) [Co. No. 145] | – | >3090 | 3.24 nM | > 10000 nM | – |
| CC(C)(C)c1nc2cc(S(=O)(=O)c3ccc(S(N)(=O)=O)s3)ccc2n1CC1CCOCC1 | 259 °C | – | – | – | – |
| CC(C)(C)c1nc2cc([S+]([O-])c3cc[n+]([O-])cc3C(F)(F)F)ccc2n1CC1CCOCC1 (stereo not shown) [Co. No. 95] | – | – | 5.75 nM | > 10000 nM | – |
| COc1c[n+]([O-])ccc1S(=O)(=O)c1ccc2c(c1)nc(C(C)(C)C)n2CC1CCOCC1 [Co. No. 115] | – | – | 3.72 nM | 3630 nM | – |
| CC(C)(C)c1nc2cc(S(=O)(=O)c3ccc(C(N)=O)cn3)ccc2n1CC1CCOCC1 [Co. No. 33] | – | 1884 | 3.09 nM | 5750 nM | – |
| CC(C)(C)c1nc2cc(S(=O)(=O)c3ccnc(F)c3)ccc2n1CC1CCC1 (as salt: HCl) (hydrate or solvate) [Co. No. 136] | 184.3 °C | – | – | – | – |
| CC(C)(C)c1nc2cc(S(=O)(=O)c3ccnc(CCCCN)c3)ccc2n1CC1CCOCC1 [Co. No. 139] | – | >759 | 13.2 nM | > 10000 nM | – |
| C=Cc1cc(S(=O)(=O)c2ccc3c(c2)nc(C(C)(C)C)n3CC2CCOCC2)ccn1 [Co. No. 142] | – | 1413 | 0.955 nM | 1350 nM | – |
| CC(=O)N1CCC(Cn2c(C(C)(C)C)nc3cc(S(=O)(=O)c4ccnc(F)c4)ccc32)CC1 | 193.9 °C | – | – | – | – |
| COc1cc(S(=O)(=O)c2ccc3c(c2)nc(C(C)(C)C)n3CC2CCOCC2)ccn1 [Co. No. 70] | – | 2570 | 0.55 nM | 1410 nM | – |
| CC(C)(C)c1nc2cc(S(=O)(=O)c3ccnc(OC(F)F)c3)ccc2n1CC1CCOCC1 [Co. No. 14] | – | 4898 | 0.776 nM | 3800 nM | ratio CB2 over CB1 agonism [1]: 4898 |
| Cc1[nH][n+]([O-])cc1[S+]([O-])c1ccc2c(c1)nc(C(C)(C)C)n2CC1CCOCC1 (stereo not shown) [Co. No. 137] | – | – | 1.12 nM | 776 nM | – |
